Measurements published in patent US8664265B2, “Stable dosage forms of spiro and dispiro 1,2,4-trioxolane antimalarials” (Ranbaxy Laboratories Limited, priority 2005, dated 2014).

Tests used:
[1] = Water content by Karl Fischer method in the compatibility studies; format: physicochemical
Procedure: (§1) The role of excipients and water content was evaluated by conducting compatibility studies of active compound with various excipients, in different proportions and evaluating the extent of degradation by forced degradation at 60° C. over the period of 2 weeks and at 50° C. for 4 weeks. The water content was analyzed using Karl Fischer method and the total related substances (% w/w) were determined by HPLC method.

[2] = Compatibility studies of active compound with excipients, forced degradation, total related substances by HPLC; format: physicochemical
Procedure: as §1

[3] = with Aerosol, Drug:Excipient 1:0.1
[4] = with Croscarmellose sodium, Drug:Excipient 1:0.5
[5] = with Cross povidone, Drug:Excipient 1:0.5
[6] = with Dicalcium phosphate, Drug:Excipient 1:2^
[7] = with Dicalcium phosphate, Drug:Excipient 1:10
[8] = with Hydroxypropyl methylcellulose 5 cps, Drug:Excipient 1:0.5
[9] = with Mg. Stearate, Drug:Excipient 1:0.1
[10] = with Micro crystalline cellulose, Drug:Excipient 1:10
[11] = with Microcrystalline cellulose, Drug:Excipient 1:2^
[12] = with Opadry ®, Drug:Excipient 1:0.5
[13] = with Pearlitol, Drug:Excipient 1:2^
[14] = with Pearlitol, Drug:Excipient 1:10
[15] = with Polyethylene glycol 400, Drug:Excipient 1:0.1
[16] = with Polyvinyl pyrrolidone K 30, Drug:Excipient 1:0.5
[17] = with Sodium lauryl sodium, Drug:Excipient 1:0.5
[18] = with Sodium starch glycolate, Drug:Excipient 1:0.5
[19] = with Starch, Drug:Excipient 1:2^
[20] = with Talc, Drug:Excipient 1:0.1
[21] = with Titanium dioxide, Drug:Excipient 1:0.5
[22] = with Starch, Drug:Excipient 1:10

In the case of CC(C)(N)CNC(=O)C[C@H]1CC[C@]2(CC1)OOC1(O2)C2CC3CC(C2)CC1C3.O=C(O)/C=C\C(=O)O (stereo partly drawn) [Active compound I, cis-adamantane-2-spiro-3′-8′-[[[(2′-amino-2′-methylpropyl)amino]carbonyl]-methyl]-1′,2′,4′-trioxaspiro[4.5]decane hydrogen maleate], the “Water (% w/w)” value [1, 3] is reported as 0.27 % w/w, the “Water (% w/w)” value [1, 4] is reported as 0.59 % w/w and the “Water (% w/w)” value [1, 5] is reported as 3.49 % w/w. The “Water (% w/w)” value [1, 6] was 2.01 % w/w, the “Water (% w/w)” value [1, 7] was 2.14 % w/w and the “Water (% w/w)” value [1, 8] was 1.22 % w/w. The “Water (% w/w)” value [1, 9] was 0.46 % w/w, the “Water (% w/w)” value [1, 10] was 4.94 % w/w and the “Water (% w/w)” value [1, 11] was 3.69 % w/w. The “Water (% w/w)” value [1, 12] was 0.46 % w/w, the “Water (% w/w)” value [1, 13] was 0.02 % w/w and the “Water (% w/w)” value [1, 14] was 0.52 % w/w. For the same compound, the “Water (% w/w)” value [1, 15] was 0.88 % w/w, the “Water (% w/w)” value [1, 16] was 3.02 % w/w and the “Water (% w/w)” value [1, 17] was 0.79 % w/w. For the same compound, the “Water (% w/w)” value [1, 18] was 1.43 % w/w, the “Water (% w/w)” value [1, 19] was 4.73 % w/w and the “Water (% w/w)” value [1, 20] was 0.12 % w/w. For the same compound, the “Water (% w/w)” value [1, 21] was 0.18 % w/w, the Compatibility with excipient ([2]; Microcrystalline cellulose) was “most satisfactory results” and the Compatibility with excipient ([2]; Starch, when used in higher amounts) was “incompatible”. For the same compound, the Compatibility with excipient ([2]; dicalcium phosphate, at 60° C.) was “increase in related substances”, the Compatibility with excipient ([2]; lactose, degradation by other mechanisms such as Maillard reaction) was “incompatible” and the “Total Related Substance (% w/w) After 2 weeks/60° C.” value [2, 3] was 0.86 % w/w. For the same compound, the “Total Related Substance (% w/w) After 4 weeks/50° C.” value [2, 3] was 0.66 % w/w, the “Total Related Substance (% w/w) Initial” value [2, 3] was 0.14 % w/w and the “Total Related Substance (% w/w) After 2 weeks/60° C.” value [2, 4] was 0.35 % w/w. For the same compound, the “Total Related Substance (% w/w) After 4 weeks/50° C.” value [2, 4] was 0.34 % w/w, the “Total Related Substance (% w/w) Initial” value [2, 4] was 0.09 % w/w and the “Total Related Substance (% w/w) After 2 weeks/60° C.” value [2, 5] was 0.68 % w/w. For the same compound, the “Total Related Substance (% w/w) After 4 weeks/50° C.” value [2, 5] was 0.40 % w/w, the “Total Related Substance (% w/w) Initial” value [2, 5] was 0.13 % w/w and the “Total Related Substance (% w/w) After 2 weeks/60° C.” value [2, 6] was 1.32 % w/w. The “Total Related Substance (% w/w) After 4 weeks/50° C.” value [2, 6] was 0.77 % w/w, the “Total Related Substance (% w/w) Initial” value [2, 6] was 0.07 % w/w and the “Total Related Substance (% w/w) After 2 weeks/60° C.” value [2, 7] was 6.07 % w/w. The “Total Related Substance (% w/w) After 4 weeks/50° C.” value [2, 7] was 0.61 % w/w, the “Total Related Substance (% w/w) Initial” value [2, 7] was 0.17 % w/w and the “Total Related Substance (% w/w) After 2 weeks/60° C.” value [2, 8] was 1.05 % w/w. For the same compound, the “Total Related Substance (% w/w) After 4 weeks/50° C.” value [2, 8] was 0.70 % w/w, the “Total Related Substance (% w/w) Initial” value [2, 8] was 0.17 % w/w and the “Total Related Substance (% w/w) After 2 weeks/60° C.” value [2, 9] was 0.86 % w/w. The “Total Related Substance (% w/w) After 4 weeks/50° C.” value [2, 9] was 0.65 % w/w, the “Total Related Substance (% w/w) Initial” value [2, 9] was 0.13 % w/w and the “Total Related Substance (% w/w) After 2 weeks/60° C.” value [2, 10] was 1.02 % w/w. For the same compound, the “Total Related Substance (% w/w) After 4 weeks/50° C.” value [2, 10] was 0.78 % w/w, the “Total Related Substance (% w/w) Initial” value [2, 10] was 0.39 % w/w and the “Total Related Substance (% w/w) After 2 weeks/60° C.” value [2, 11] was 0.74 % w/w. For the same compound, the “Total Related Substance (% w/w) After 4 weeks/50° C.” value [2, 11] was 0.70 % w/w, the “Total Related Substance (% w/w) Initial” value [2, 11] was 0.19 % w/w and the “Total Related Substance (% w/w) After 2 weeks/60° C.” value [2, 12] was 0.96 % w/w. For the same compound, the “Total Related Substance (% w/w) After 4 weeks/50° C.” value [2, 12] was 1.85 % w/w, the “Total Related Substance (% w/w) Initial” value [2, 12] was 0.17 % w/w and the “Total Related Substance (% w/w) After 2 weeks/60° C.” value [2, 13] was 0.77 % w/w. For the same compound, the “Total Related Substance (% w/w) After 4 weeks/50° C.” value [2, 13] was 0.72 % w/w, the “Total Related Substance (% w/w) Initial” value [2, 13] was 0.14 % w/w and the “Total Related Substance (% w/w) After 2 weeks/60° C.” value [2, 14] was 0.70 % w/w. For the same compound, the “Total Related Substance (% w/w) After 4 weeks/50° C.” value [2, 14] was 0.46 % w/w, the “Total Related Substance (% w/w) Initial” value [2, 14] was 0.14 % w/w and the “Total Related Substance (% w/w) After 2 weeks/60° C.” value [2, 15] was 0.68 % w/w. The “Total Related Substance (% w/w) After 4 weeks/50° C.” value [2, 15] was 0.66 % w/w, the “Total Related Substance (% w/w) Initial” value [2, 15] was 0.14 % w/w and the “Total Related Substance (% w/w) After 2 weeks/60° C.” value [2, 16] was 0.79 % w/w. For the same compound, the “Total Related Substance (% w/w) After 4 weeks/50° C.” value [2, 16] was 0.33 % w/w, the “Total Related Substance (% w/w) Initial” value [2, 16] was 0.00 % w/w and the “Total Related Substance (% w/w) After 2 weeks/60° C.” value [2, 17] was 1.59 % w/w. For the same compound, the “Total Related Substance (% w/w) After 4 weeks/50° C.” value [2, 17] was 0.92 % w/w, the “Total Related Substance (% w/w) Initial” value [2, 17] was 0.15 % w/w and the “Total Related Substance (% w/w) After 2 weeks/60° C.” value [2, 18] was 0.89 % w/w. The “Total Related Substance (% w/w) After 4 weeks/50° C.” value [2, 18] was 0.43 % w/w, the “Total Related Substance (% w/w) Initial” value [2, 18] was 0.13 % w/w and the “Total Related Substance (% w/w) After 2 weeks/60° C.” value [2, 19] was 0.74 % w/w. For the same compound, the “Total Related Substance (% w/w) After 4 weeks/50° C.” value [2, 19] was 0.60 % w/w, the “Total Related Substance (% w/w) Initial” value [2, 19] was 0.08 % w/w and the “Total Related Substance (% w/w) After 2 weeks/60° C.” value [2, 22] was 4.13 % w/w. For the same compound, the “Total Related Substance (% w/w) After 4 weeks/50° C.” value [2, 22] was 0.60 % w/w, the “Total Related Substance (% w/w) Initial” value [2, 22] was 0.07 % w/w and the “Total Related Substance (% w/w) After 2 weeks/60° C.” value [2, 20] was 0.90 % w/w. For the same compound, the “Total Related Substance (% w/w) After 4 weeks/50° C.” value [2, 20] was 0.63 % w/w, the “Total Related Substance (% w/w) Initial” value [2, 20] was 0.15 % w/w and the “Total Related Substance (% w/w) After 2 weeks/60° C.” value [2, 21] was 0.93 % w/w. The “Total Related Substance (% w/w) After 4 weeks/50° C.” value [2, 21] was 0.57 % w/w and the “Total Related Substance (% w/w) Initial” value [2, 21] was 0.16 % w/w.
